Data on one molecule can be found in patent US7666414B2, “Methods for treating prostate cancer using modified antibodies to prostate-specific membrane antigen” (Cornell Research Foundation, Inc., priority 2001, dated 2010).

In data set [1] the test system is LNCaP cells tumor xenografts. As to the kind of experiment: Murine J591-DM1 immunoconjugate in LNCaP xenografts. Type of data set: in vivo, BALB/c mice. The following applies: unconjugated, alone or with unconjugated mAb J591, intraperitoneal qday x 5 days. Here is the method:
Tumor xenografts of LNCaP cells were established in the right flank of BALB/c mice (5×10^6 cells injected subcutaneously). Animals were observed until tumors were visible (7-10 mm). Animals were then treated with PBS, unconjugated mAb J591, unconjugated DM1, both mAb J591 and DM1 but unconjugated, and J591-DM1 immunoconjugate (100, 200, 300, and 400 mcg/day intraperitoneal qday×5 days). The mAb J591 was modified to introduce dithiopyridyl groups and then conjugated to DM1 via a hindered disulfide bond, as described above. Unconjugated mAb J591 and DM1 were given in equimolar concentrations.
Tumor xenografts of both LNCaP cells (5×10^6 cells injected subcutaneously in the right flank) and PC3 cells (3×10^6 cells injected subcutaneously in the left flank) were established in BALB/c mice. Animals were observed until LNCaP tumors were visible (PC3 tumors were present but much smaller). Animals treated with J591-DM1 immunoconjugate: 300 mcg/day intraperitoneal qday×5 days
Tumor xenografts of LNCaP cells were established subcutaneously in the right flank of BALB/c mice. […]
All animals were photographed pre- and post-treatment and tagged for identification. Tumor volume was determined (length×width×depth) and closely followed. […]

Another data set concerns CD-1 mice. An excerpt:
Use of both mice and cynomolgus monkeys for nonclinical testing allowed comparison of exposure and toxicity across species on the basis of body surface area (mg/m^2), and thus aided in selecting the SSD for the proposed Phase 1 clinical trial.

The test system of data set [2] is PSMA-positive CWR22 xenografts. Kind of data set: Efficacy in PSMA-positive CWR22 xenografts. The data set is classed as in vivo, C.B-17 scid mice. Here is the method:
Experiment: Male SCID mice were implanted by serial passage of CWR22 prostate tumor xenograft. […] All treatments were given intravenously. Tumor growth and animal health were continually monitored throughout the study with tumor growth measured every 3 days.
Experiment: Male C.B-17 SCID mice bearing CWR22 xenografts approximately 200 mm^3 in size received IV injections (200 μL constant volume) of the test articles according to the dose and schedule as shown in Table 22.
Male C.B-17 scid mice bearing CWR22 xenografts approximately 200 mm^3 in size received IV injections (200 μL constant volume) of the test articles according to the dose and schedule shown in the Table 23.
The objective of this study was to determine how much the dosing interval could be increased at this dosage before a loss of efficacy in terms of TGD would be observed. […] The growth delays for the other schedules were: q7d, 53.0 days; q21d, 48.0 days; and q28d, 26.9 days. Similar to other studies using the CWR22 xenograft model, no curative responses were observed, with all tumors eventually resuming growth (FIG. 18).
Experiment: Male SCID mice were implanted by serial passage of CWR22 prostate tumor xenograft. […] All treatments were given intravenously and on a schedule of every three days for 5 doses. Tumor growth and animal health were continually monitored throughout the study with tumor growth measured every 3 days.
Experiment: Male SCID mice were implanted by serial passage of CWR22 prostate tumor xenograft. […] All treatments were given intravenously and on a schedule of every seven days for 5 doses. Tumor growth and animal health were continually monitored throughout the study with tumor growth measured every 3 days.

For data set [3], the system named is PSMA-positive 22RV1 xenografts. As to the kind of experiment: Efficacy in castrate or intact scid mice bearing androgen-independent 22RV1 xenograft. The data set is classed as in vivo, C.B-17 scid mice. Particulars: 240 μg/kg, q3dX5. The protocol:
Prostate tumors can be broadly classified as either androgen-dependent or androgen-independent. […] The 22RV1 cell line was originally developed as androgen-independent and can be grown as a xenograft in C.B-17 scid mice that have been left either intact or castrated. […] C.B-17 scid mice bearing CWR22 xenografts approximately 200 mm^3 in size received IV injections (200 μL constant volume) of the test articles according to the dosage and schedule shown in the Table 24.

Like-named read-outs stand apart in the source and are kept apart here.

Regarding `COc1cc2cc(c1Cl)N(C)C(=O)C[C@H](OC(=O)[C@H](C)N(C)C(=O)CCS)[C@]1(C)O[C@H]1[C@H](C)[C@@H]1C[C@@](O)(NC(=O)O1)[C@H](OC)/C=C/C=C(\C)C2` [DM1, reference compound], the lethality entry in data set [1] is given as “died within 48 hours of treatment completion”. Further, the “Degree of Toxicity and Major Target Organs” value in the data set with CD-1 mice (DM1 0.86 mg/m^2 (0.29 mg/kg), single IV, CD-1 mice) is listed as “Slight mitosis/necrosis of epidermis”; in the data set with CD-1 mice (DM1 1.62 mg/m^2 ([…]), single IV, CD-1 mice), “Mild bone marrow myeloid”. The mortality with CD-1 mice (DM1 8.64 mg/m^2 (2.88 mg/kg), single IV, CD-1 mice) is on record as 100% mortality attributed to severe. The “elevated AST and ALT values” in the data set on CD-1 mice (DM1 […]^2 (1.08 mg/kg), single IV, CD-1 mice) is given as “moderate mitosis/necrosis of liver; no”. In the data set with CD-1 mice (severely toxic dosage, single IV, CD-1 mice), the STD is 1.80 mg/kg. For the same molecule, in the data set on CD-1 mice (single IV administration), the “toxicity compared to deJ591-DM1 at equimolar dosages” value is listed as “tended to be less toxic than deJ591-DM1 at lower dosages”. In the data set with CD-1 mice (single IV, CD-1 mice), this molecule showed an MTD of 1.08 mg/kg. Moreover, the “Tumor Growth Delay” value in data set [2] (Comparison II, 240 μg/kg, q3dX5) came out at 9.5 days; in data set [3] (Castrate Mice), 9.1 days; in data set [3] (Intact Mice), 6.3 days. The “effect on CWR22 xenograft tumor growth” value in data set [2] (every three days for 5 doses, IV, equimolar to 14.5 mg/kg deJ591-DM1) is on record as “some tumor growth delay”. Further, in data set [3], the “Relative TGD (TGD of castrate mice/TGD of intact mice)” value was determined as 1.4.
